In PMC6784244 (Toxins, 2019):
Converted amounts (≈) assume the structure as drawn.

Legend:
C. perfringens = type: cell-based, Clostridium perfringens
[1] = test system: Mycobacterium smegmatis (mc2155, ATCC 700084); settings: mc2155, 72 h

Structure (SMILES)	percentage of membrane permeabilization at 100 µM, 120 min (C. perfringens) [%]	percentage of permeabilization at four times the MIC (C. perfringens) [%]	MIC, M. smegmatis [1] [µM]
CC[C@H](C)[C@H]1C(=O)O[C@H](C(C)C)C(=O)N(C)[C@@H]([C@@H](C)CC)C(=O)O[C@H](C(C)C)C(=O)N(C)[C@@H]([C@@H](C)CC)C(=O)O[C@H](C(C)C)C(=O)N1C [ENN A]	37.1 ± 6.7	7.2 ± 2.5	6.25 (≈ 4.26 µg/mL)
CC[C@H](C)[C@H]1C(=O)O[C@H](C(C)C)C(=O)N(C)[C@@H]([C@@H](C)CC)C(=O)O[C@H](C(C)C)C(=O)N(C)[C@@H](C(C)C)C(=O)O[C@H](C(C)C)C(=O)N1C [ENN A1]	–	–	3.12 (≈ 2.08 µg/mL)
CC(C)[C@H]1C(=O)O[C@H](C(C)C)C(=O)N(C)[C@@H](C(C)C)C(=O)O[C@H](C(C)C)C(=O)N(C)[C@@H](C(C)C)C(=O)O[C@H](C(C)C)C(=O)N1C [ENN B]	19.6 ± 7.9	–	100 (≈ 64 µg/mL)
CC[C@H](C)[C@H]1C(=O)O[C@H](C(C)C)C(=O)N(C)[C@@H](C(C)C)C(=O)O[C@H](C(C)C)C(=O)N(C)[C@@H](C(C)C)C(=O)O[C@H](C(C)C)C(=O)N1C [ENN B1]	–	–	6.25 (≈ 4.09 µg/mL)
